Structures are written as SMILES.

28 compounds from patent US20110065916A1, “METHOD OF MAKING IMIDAZOAZEPINONE COMPOUNDS” (priority 2007, published 2011) can be followed below.

The first assay relates to human T-bet. The assay is described as follows: HEKT-bet-luc assay (normalized HEKT-bet IC50). The class given is cell-based. The settings on record: Homo sapiens, HEK293, 24 h, Table 2, engineered HEK cells, compound 24 hours, normalized to reference ER-819544. On the procedure: HEKT-bet-luc assay: This assay measures a T-bet dependent reporter (luciferase) activity in engineered HEK cells that express a human T-bet and a T-box responsive element driving luciferase reporter. HEKT-bet cells were plated at 2×10^4/well in 96-well plate and compound was added into cell culture for 24 hours. Luciferase activity was measured by adding 50 μl of Steady-Glo reagent (Promega) and samples were read in Victor V reader (PerkinElmer). The activity of compound was determined by comparing compound treated samples to non-compound treated vehicle controls. The IC50 values were calculated utilizing a maximum value corresponding to the amount of luciferase in the absence of a test compound and a minimum value corresponding to a test compound value obtained at maximum inhibition.
Determination of Normalized HEKT-bet IC50 values: Compounds were assayed in microtiter plates. Each plate included a reference compound which was ER-819544. The un-normalized IC50 value for a particular compound was divided by the IC50 value determined for the reference compound in the same microtiter plate to provide a relative potency value. The relative potency value was then multiplied by the established potency of the reference compound to provide the normalized HEKT-bet IC50 value. […] The IC50 values provided herein were obtained using this normalization method.
In turn, `COc1cc2c(c(OC)c1)C(C)(C)C=C1N(C2)C(=O)NC12CCN(Cc1ccccc1)CC2` [compound 819667] displayed an IC50 of 250 nM.

Still in this assay, the particulars now being: Homo sapiens, HEK293, 24 h, Table 4, engineered HEK cells, compound 24 hours, normalized to reference ER-819544.
For `CCN1C(=O)N2Cc3cc(OC)cc(OC)c3[C@@H](C)C=C2C12CCN(Cc1cc(C)ccc1F)CC2` [ER-819935], 130 nM corresponded to half-maximal inhibition (IC50). On the same count and under the same terms, with `CCN1C(=O)N2Cc3cc(OC)cc(OC)c3[C@@H](C)C=C2C12CCN(Cc1ccc(F)c(OC)c1)CC2` [ER-819936] the figure was 120 nM; with `CCN1C(=O)N2Cc3cc(OC)cc(OC)c3[C@H](C)C=C2C12CCN(Cc1cc(C)c(F)c(C)c1)CC2` [ER-819943], more than 10000 nM; with `CCN1C(=O)N2Cc3cc(OC)cc(OC)c3[C@H](C)C=C2C12CCN(Cc1ccc(F)c(OC(F)(F)F)c1)CC2` [ER-819945], more than 10000 nM. Consider `CCN1C(=O)N2Cc3cc(OC)cc(OC)c3[C@H](C)C=C2C12CCN(Cc1c(F)ccc(C)c1F)CC2` [ER-819946], for which the IC50 was found to be 2970 nM. `CCN1C(=O)N2Cc3cc(OC)cc(OC)c3[C@H](C)C=C2C12CCN(Cc1cc(C)ccc1F)CC2` [ER-819947] registered an IC50 of 2600 nM. Take `CCN1C(=O)N2Cc3cc(OC)cc(OC)c3[C@H](C)C=C2C12CCN(Cc1ccc(F)c(OC)c1)CC2` [ER-819948]: the IC50 was more than 10000 nM. Turning to `CCN1C(=O)N2Cc3cc(OC)cc(OC)c3[C@@H](C)C=C2C12CCN(Cc1cccc3nccnc13)CC2` [ER-819953-01], the IC50 was determined as 26 nM. On the same count and under the same terms, with `CCN1C(=O)N2Cc3cc(OC)cc(OC)c3[C@@H](C)C=C2C12CCN(Cc1cccc3ncccc13)CC2` [ER-819954-01] the figure was 47 nM. Take `CCN1C(=O)N2Cc3cc(OC)cc(OC)c3[C@@H](C)C=C2C12CCN(Cc1cccc3cccnc13)CC2` [ER-819955-01]: 20 nM corresponded to half-maximal inhibition (IC50).

As to `CCN1C(=O)N2Cc3cc(OC)cc(OC)c3[C@@H](C)C=C2C12CCN(Cc1ccnn1C)CC2` [ER-819958-01], 79 nM corresponded to half-maximal inhibition (IC50). For the compound `CCN1C(=O)N2Cc3cc(OC)cc(OC)c3[C@@H](C)C=C2C12CCN(Cc1ccn(C)c1)CC2` [ER-819961-01], half-maximal inhibition (IC50) required 96 nM. For `CCN1C(=O)N2Cc3cc(OC)cc(OC)c3[C@@H](C)C=C2C12CCN(Cc1nc3ccccc3[nH]1)CC2` [ER-819965-01], half-maximal inhibition (IC50) was put at 130 nM.

In turn, `CCN1C(=O)N2Cc3cc(OC)cc(OC)c3[C@@H](C)C=C2C12CCN(Cc1ccc3[nH]ccc3c1)CC2` [ER-819966-01] gave an IC50 of 48 nM. Consider `CCN1C(=O)N2Cc3cc(OC)cc(OC)c3[C@@H](C)C=C2C12CCN(Cc1cn(C)nc1C)CC2` [ER-819971-01], for which the IC50 was found to be 34 nM. On the same count and under the same terms, for `CCN1C(=O)N2Cc3cc(OC)cc(OC)c3[C@@H](C)C=C2C12CCN(Cc1cc(C)nn1C)CC2` [ER-819973-01] the value was 30 nM. In turn, `CCN1C(=O)N2Cc3cc(OC)cc(OC)c3[C@@H](C)C=C2C12CCN(Cc1cnn(C)c1C)CC2` [ER-819976-01] yielded an IC50 of 23 nM. With `CCN1C(=O)N2Cc3cc(OC)cc(OC)c3[C@@H](C)C=C2C12CCN(Cc1cccn1-c1cccnc1)CC2` [ER-819979-01], it took 120 nM to reach half-maximal inhibition (IC50).

`CCN1C(=O)N2Cc3cc(OC)cc(OC)c3[C@@H](C)C=C2C12CCN(Cc1nc3ccccc3o1)CC2` [ER-819981-01] returned an IC50 of 200 nM. For the compound `CCN1C(=O)N2Cc3cc(OC)cc(OC)c3[C@@H](C)C=C2C12CCN(Cc1nccc(-c3ccccc3)n1)CC2` [ER-819985-01], the half-inhibitory concentration (IC50) stood at 130 nM.

`CCN1C(=O)N2Cc3cc(OC)cc(OC)c3[C@@H](C)C=C2C12CCN(Cc1nc(OC)cc(OC)n1)CC2` [ER-820004-01] returned a concentration for half-maximal inhibition (IC50) of 67 nM. As to `CCN1C(=O)N2Cc3cc(OC)cc(OC)c3[C@@H](C)C=C2C12CCN(Cc1cccn1CCC#N)CC2` [ER-820008-00], the IC50 turned out to be 240 nM. With `CCN1C(=O)N2Cc3cc(OC)cc(OC)c3[C@@H](C)C=C2C12CCN(Cc1nccn1OCc1ccccc1)CC2` [ER-820009-00], half-maximal inhibition (IC50) required 110 nM. Still for that read-out and setting: with `CCN1C(=O)N2Cc3cc(OC)cc(OC)c3[C@@H](C)C=C2C12CCN(Cc1cccn1-c1cc(C)on1)CC2` [ER-820017-01] the figure was 69 nM; with `CCN1C(=O)N2Cc3cc(OC)cc(OC)c3[C@@H](C)C=C2C12CCN(Cc1cccn1-c1cnccn1)CC2` [ER-820020-02], 180 nM. The compound `CCN1C(=O)N2Cc3cc(OC)cc(OC)c3[C@@H](C)C=C2C12CCN(Cc1cc(OC)c(F)c(OC)c1)CC2` [ER-824214-00] registered an IC50 of 29 nM.

The assay is the same for the next values; noted with them: Table 4, engineered HEK cells, compound 24 hours, normalized to reference ER-819544.
The compound `CCN1C(=O)N2Cc3cc(OC)cc(OC)c3[C@@H](C)C=C2C12CCN(Cc1nccn1C)CC2` [ER-819957-01] returned an IC50 of 55 nM.

In general, IC50 refers to the concentration needed to halve the response being measured. Read a high IC50 as a need for much substance.
